Measurements as given in PubChem BioAssay (NCI).
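In this assay, cells in 96-well plates receive the compound at five concentrations for 48 hours. Endpoints are linearly interpolated between the surrounding concentrations. The concentration for full growth arrest is given as TGI.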

What was measured:
Test in all cases: NCI tumour cell line growth inhibition, 48 h
NCI-H460 lung = system: NCI-H460 lung
HCT-116 colon = system: HCT-116 colon
IGROV1 ovarian = system: IGROV1 ovarian
MCF7 breast = system: MCF7 breast
MDA-MB-435 = system: MDA-MB-435
SNB-19 CNS = system: SNB-19 CNS
SN12C renal = system: SN12C renal
T-47D breast = system: T-47D breast
OVCAR-8 ovarian = system: OVCAR-8 ovarian
NCI-H23 lung = system: NCI-H23 lung
MOLT-4 leukemia = system: MOLT-4 leukemia
SF-268 CNS = system: SF-268 CNS
LOX IMVI melanoma = system: LOX IMVI melanoma
CCRF-CEM leukemia = system: CCRF-CEM leukemia
HCC-2998 colon = system: HCC-2998 colon
MDA-MB-231 breast = system: MDA-MB-231 breast
EKVX NSCLC = system: EKVX NSCLC
NCI-H226 lung = system: NCI-H226 lung
UO-31 renal = system: UO-31 renal
SR leukemia = system: SR leukemia
SW-620 colon = system: SW-620 colon
TK-10 renal = system: TK-10 renal
UACC-62 melanoma = system: UACC-62 melanoma
UACC-257 melanoma = system: UACC-257 melanoma
OVCAR-4 ovarian = system: OVCAR-4 ovarian
DU-145 prostate = system: DU-145 prostate
BT-549 breast = system: BT-549 breast
SK-MEL-28 melanoma = system: SK-MEL-28 melanoma
HL-60(TB) leukemia = system: HL-60(TB) leukemia
COLO 205 colon = system: COLO 205 colon
SK-OV-3 ovarian = system: SK-OV-3 ovarian
RXF 393 renal = system: RXF 393 renal
CAKI-1 renal = system: CAKI-1 renal
HT29 colon = system: HT29 colon
KM12 colon = system: KM12 colon
HOP-62 NSCLC = system: HOP-62 NSCLC
786-0 renal = system: 786-0 renal
MDA-N = system: MDA-N
A549 NSCLC = system: A549 NSCLC
A498 renal = system: A498 renal
OVCAR-5 ovarian = system: OVCAR-5 ovarian
SF-539 CNS = system: SF-539 CNS
SK-MEL-5 melanoma = system: SK-MEL-5 melanoma
MALME-3M melanoma = system: MALME-3M melanoma
OVCAR-3 ovarian = system: OVCAR-3 ovarian
SF-295 CNS = system: SF-295 CNS
K-562 leukemia = system: K-562 leukemia
U251 CNS = system: U251 CNS
HCT-15 colon = system: HCT-15 colon
RPMI-8226 leukemia = system: RPMI-8226 leukemia
ACHN renal = system: ACHN renal
SNB-75 CNS = system: SNB-75 CNS
NCI/ADR-RES ovarian = system: NCI/ADR-RES ovarian

Measured: TGI

CC(=O)OCC1OC(SC2OC(COC(C)=O)C(OC(C)=O)C(OC(C)=O)C2OC(C)=O)C(OC(C)=O)C(OC(C)=O)C1OC(C)=O (stereo not drawn)
> 100 µM: NCI-H460 lung | HCT-116 colon | IGROV1 ovarian | MCF7 breast | MDA-MB-435 | SNB-19 CNS | SN12C renal | T-47D breast | OVCAR-8 ovarian | NCI-H23 lung | MOLT-4 leukemia | SF-268 CNS | LOX IMVI melanoma | CCRF-CEM leukemia | HCC-2998 colon | MDA-MB-231 breast | EKVX NSCLC | NCI-H226 lung | UO-31 renal | SR leukemia | SW-620 colon | TK-10 renal | UACC-62 melanoma | UACC-257 melanoma | OVCAR-4 ovarian | DU-145 prostate | BT-549 breast | SK-MEL-28 melanoma | HL-60(TB) leukemia | COLO 205 colon | SK-OV-3 ovarian | RXF 393 renal | CAKI-1 renal | HT29 colon | KM12 colon | HOP-62 NSCLC | 786-0 renal | MDA-N | A549 NSCLC | A498 renal | OVCAR-5 ovarian | SF-539 CNS | SK-MEL-5 melanoma | MALME-3M melanoma | OVCAR-3 ovarian | SF-295 CNS | K-562 leukemia | U251 CNS | HCT-15 colon | RPMI-8226 leukemia | ACHN renal | SNB-75 CNS | NCI/ADR-RES ovarian
